Patent US20160158200A1, “Combinations of Hepatitis C Virus Inhibitors” (priority 2013, published 2016)

tested on: HCV genotype-1a variant with glutamine 30 changed to glutamate in the NS5A protein; assay type: cell-based; conditions: test compound titrated with BMS-790052 fixed at 200 nM; genotype 1a Q30E replicon
Outline: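 Synergy was assessed by combining several fixed amounts of an NS5A-targeting compound with a titration of the second compound of interest.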

Compound	Fold-Synergistic 1a (Q30E)
CC(C)(C)C(=O)NC1(C(=O)N[C@H](c2nc(-c3ccc(-c4ccc(-c5c[nH]c([C@@H](NC(=O)C6(NC(=O)C(C)(C)C)CCCCC6)C(C)(C)C)n5)cc4)cc3)c[nH]2)C(C)(C)C)CCCCC1 [Compound W-262]	>100 fold
CC(C)(C)[C@H](NC(=O)C1CCC(F)(F)CC1)c1ncc(C#CC#Cc2cnc([C@@H](NC(=O)C3CCC(F)(F)CC3)C(C)(C)C)[nH]2)[nH]1 [Compound B66]	>10 fold
CC(C)(NC(=O)OCCF)C(=O)N[C@H](c1nc(-c2ccc(-c3ccc(-c4c[nH]c([C@@H](NC(=O)C(C)(C)NC(=O)OCCF)C(C)(C)C)n4)cc3)cc2)c[nH]1)C(C)(C)C [Compound Q-4]	>100 fold
CC(C)(C)[C@H](NC(=O)[C@@]1(C)CCC(F)(F)CO1)c1nc(-c2ccc(-c3ccc(-c4c[nH]c([C@@H]5CCCN5C(=O)c5nccc6c(Cl)cccc56)n4)cc3)cc2)c[nH]1 [Compound Y-85, (R)—N—((S)-1-(4-(4′-(2-((S)-1-(5-chloroisoquinoline-1-carbonyl)pyrrolidin-2-yl)-1H-imidazol-4-yl)-[1,1′-biphenyl]-4-yl)-1H-imidazol-2-yl)-2,2-dimethylpropyl)-5,5-difluoro-2-methyltetrahydro-2H-pyran-2-carboxamide]	>100 fold
Cc1oncc1C(=O)N[C@H](c1ncc(-c2ccc(-c3ccc(-c4cnc([C@@H](NC(=O)c5cnoc5C)C(C)C)[nH]4)cc3)cc2)[nH]1)C(C)C [Compound S-104]	>100 fold
CC(C)(C)OC(=O)N1CCCCC1(C)C(=O)N[C@H](c1nc(-c2ccc(-c3ccc(-c4c[nH]c([C@@H](NC(=O)C5(C)CCCCN5C(=O)OC(C)(C)C)C(C)(C)C)n4)cc3)cc2)c[nH]1)C(C)(C)C (single isomer, unassigned) [Compound L-46c]	>100 fold
CC(C)(C(=O)N[C@H](c1nc(-c2ccc(-c3ccc(-c4c[nH]c([C@@H](NC(=O)C(C)(C)C(=O)N5CCOCC5)C(C)(C)C)n4)cc3)cc2)c[nH]1)C(C)(C)C)C(=O)N1CCOCC1 [Compound W-135]	>10 fold
C[C@H]1CCN(C(=O)C(=O)N(C2CC2)C2CC2)C1c1nc(-c2ccc(-c3ccc(-c4c[nH]c(C5[C@@H](C)CCN5C(=O)C(=O)N(C5CC5)C5CC5)n4)cc3)cc2)c[nH]1 (stereo partly drawn) [Compound W-244]	>100 fold
COC(C)(C)C(=O)N[C@H](c1nc(-c2ccc(-c3ccc(-c4c[nH]c([C@@H](NC(=O)C(C)(C)OC)C(C)(C)C)n4)cc3)cc2)c[nH]1)C(C)(C)C [Compound P-13]	>100 fold
CC(C)C(=O)NC1(C(=O)N[C@H](c2nc(-c3ccc(-c4ccc(-c5c[nH]c([C@@H](NC(=O)C6(NC(=O)C(C)C)CCCCC6)C(C)(C)C)n5)cc4)cc3)c[nH]2)C(C)(C)C)CCCCC1 [Compound W-266]	>100 fold
COC(=O)NC(C(=O)NC(c1nc(-c2ccc(-c3ccc(-c4c[nH]c(C(NC(=O)C(NC(=O)OC)C5CC(C)OC(C)C5)C(C)(C)C)n4)cc3)cc2)c[nH]1)C(C)(C)C)C1CC(C)OC(C)C1 [Compound L-72]	>10 fold
CC(C)CC(=O)NC1(c2ncc(-c3ccc(-c4ccc(-c5cnc(C6(NC(=O)CC(C)C)CCCC6)[nH]5)cc4)cc3)[nH]2)CCCC1.O=C(O)C(F)(F)F.O=C(O)C(F)(F)F [Compound N-12]	<10 fold
CC(C)[C@H](NC(=O)C(C)(C)C)c1nc(-c2ccc3c(c2)Cc2cc(-c4c[nH]c([C@@H](NC(=O)C(C)(C)C)C(C)C)n4)ccc2-3)c[nH]1 [Compound N-68]	>100 fold
CC(C)[C@H](NC(=O)c1cccc(Cl)c1Cl)c1ncc(-c2ccc(-c3ccc(-c4cnc([C@@H](NC(=O)c5cccc(Cl)c5Cl)C(C)C)[nH]4)cc3)cc2)[nH]1 [Compound S-66]	>100 fold
C[C@H]1C[C@@H](c2nc(-c3ccc(-c4ccc(-c5c[nH]c([C@@H]6C[C@H](C)CN6C(=O)C(=O)N6CCC(F)(F)CC6)n5)cc4)cc3)c[nH]2)N(C(=O)C(=O)N2CCC(F)(F)CC2)C1 [Compound L-143]	>100 fold
COC(=O)N[C@H](C(=O)N1CCC[C@H]1c1ncc(-c2ccc(-c3ccc(-c4cnc([C@@H](NC(=O)[C@@H]5CCCN5C(=O)OC(C)(C)C)C(C)(C)C)[nH]4)cc3)cc2)[nH]1)C(C)C [Compound B-191]	>10 fold
CC(C)(C)[C@H](NC(=O)C(=O)N1CCCCC1)c1nc(-c2ccc(-c3ccc(-c4c[nH]c([C@@H](NC(=O)C(=O)N5CCCCC5)C(C)(C)C)n4)cc3)cc2)c[nH]1 [Compound W-11]	>100 fold
CC(C)(C)[C@H](NC(=O)C1CCC(F)(F)CC1)c1nc(-c2ccc(-c3ccc4c(c3)CCc3nc([C@@H](NC(=O)C5CCC(F)(F)CC5)C(C)(C)C)[nH]c3-4)cc2)c[nH]1 [Compound B10]	>100 fold
COC(=O)N(C)C1(C(=O)N[C@H](c2nc(-c3ccc(-c4ccc(-c5c[nH]c([C@@H](NC(=O)C6(N(C)C(=O)OC)CC6)C(C)(C)C)n5)cc4)cc3)c[nH]2)C(C)(C)C)CC1.O=C(O)C(F)(F)F.O=C(O)C(F)(F)F [Compound L-19]	>100 fold
CC(C)(C)[C@H](NC(=O)c1ccccc1OC(F)F)c1nc(-c2ccc(-c3ccc(-c4c[nH]c([C@@H](NC(=O)c5ccccc5OC(F)F)C(C)(C)C)n4)cc3)cc2)c[nH]1 [Compound P-25]	>100 fold

Compound	Fold-Synergistic 1a (Q30E)
CC(C)(C)CCC(=O)N[C@H](c1nc(-c2ccc(-c3ccc(-c4c[nH]c([C@@H](NC(=O)CCC(C)(C)C)C(C)(C)C)n4)cc3)cc2)c[nH]1)C(C)(C)C [Compound N-58]	>100 fold
CC(C)(C)[C@H](NC(=O)C1C2CCOC21)c1nc(-c2ccc(-c3ccc(-c4cnc([C@@H](NC(=O)C5C6CCOC65)C(C)(C)C)[nH]4)cc3)cc2)c[nH]1 (single isomer, unassigned) [Compound B-163]	>100 fold
COc1ccc(C(=O)N[C@H](c2ncc(-c3ccc(-c4ccc(-c5cnc([C@@H](NC(=O)c6ccc(OC)cc6)C(C)C)[nH]5)cc4)cc3)[nH]2)C(C)C)cc1 [Compound S-28]	>100 fold
CC1(C)C2CCC(C(=O)N[C@H](c3nc(-c4ccc(-c5ccc(-c6c[nH]c([C@@H](NC(=O)C78CCC(C7)C(C)(C)C8O)C7(C)CC7)n6)cc5)cc4)c[nH]3)C3(C)CC3)(C2)C1O (single isomer, unassigned) [Compound Y-118]	>100 fold
Cc1ccc(C(=O)N[C@H](c2nc(-c3ccc(-c4ccc(-c5c[nH]c([C@@H](NC(=O)c6ccc(C)s6)C(C)(C)C)n5)cc4)cc3)c[nH]2)C(C)(C)C)s1 [Compound N-64]	>100 fold
CC(C)(C)C(NC(=O)C1CCCN1CC(F)(F)F)c1nc(-c2ccc(-c3ccc(-c4c[nH]c(C(NC(=O)C5CCCN5CC(F)(F)F)C(C)(C)C)n4)cc3)cc2)c[nH]1 [Compound L-52]	>100 fold
COc1cccc2c(C(=O)N3CCC[C@H]3c3ncc(-c4ccc(-c5ccc(-c6cnc([C@@H]7CCCN7C(=O)c7nccc8c(OC)cccc78)[nH]6)cc5)cc4)[nH]3)nccc12 [Compound S-201]	>100 fold
CC(C)(C)[C@H](NC(=O)C1CCC(F)(F)CC1)c1ncc(-c2ccc3cc(-c4ccc5nc([C@@H](NC(=O)C6CCC(F)(F)CC6)C(C)(C)C)[nH]c5c4)ccc3c2)[nH]1 [Compound B53]	>100 fold
CC(C)(C(=O)N[C@H](c1nc(-c2ccc(-c3ccc(-c4c[nH]c([C@@H](NC(=O)C(C)(C)C(O)c5ccccn5)C(C)(C)C)n4)cc3)cc2)c[nH]1)C(C)(C)C)C(O)c1ccccn1 (single isomer, unassigned) [Compound N-128B]	>100 fold
COC(C)(C)C(=O)N[C@H](c1nc(-c2ccc(-c3ccc(-c4c[nH]c([C@@H](NC(=O)C(C)(C)OC)C(C)C)n4)c(F)c3)cc2)c[nH]1)C(C)C.O=C(O)C(F)(F)F [Compound N-87]	>100 fold
CC(C)(C)[C@H](NC(=O)C1CC2CCC(C1)C2(F)F)c1nc(-c2ccc(-c3ccc(-c4c[nH]c([C@@H](NC(=O)C5CC6CCC(C5)C6(F)F)C(C)(C)C)n4)cc3)cc2)c[nH]1 (stereo partly drawn) [Compound P-45]	>100 fold
CC(C)(F)C(NC(=O)C1CCC(F)(F)CC1)c1nc(-c2ccc(-c3ccc(-c4c[nH]c(C(NC(=O)C5CCC(F)(F)CC5)C(C)(C)F)n4)cc3)cc2)c[nH]1 (single isomer, unassigned) [Compound N-106A]	>100 fold
CC(C)[C@H](NC(=O)C1CCC(F)(F)CC1)c1ncc(-c2ccc(-c3ccc(-c4cnc([C@@H](NC(=O)C5CCC(F)(F)CC5)C(C)C)[nH]4)cc3)cc2)[nH]1 [Compound P-79]	>100 fold
CC(C)(C)[C@H](NS(=O)(=O)N1CCOCC1)c1nc(-c2ccc(-c3ccc(-c4c[nH]c([C@@H](NS(=O)(=O)N5CCOCC5)C(C)(C)C)n4)cc3)cc2)c[nH]1 [Compound L-119]	>100 fold
CC(C)[C@H](NC(=O)Cc1cccs1)c1ncc(-c2ccc(-c3ccc(-c4cnc([C@@H](NC(=O)Cc5cccs5)C(C)C)[nH]4)cc3)cc2)[nH]1 [Compound P-78]	>100 fold
CC1(C(=O)N[C@H](c2nc(-c3ccc(-c4ccc(-c5c[nH]c([C@@H](NC(=O)C6(C)CC6)C(C)(C)C)n5)cc4)cc3)c[nH]2)C(C)(C)C)CC1 [Compound L-45]	>100 fold
CC(=O)NC1(C(=O)N[C@H](c2nc(-c3ccc(-c4ccc(-c5c[nH]c([C@@H](NC(=O)C6(NC(C)=O)CCCCC6)C(C)(C)C)n5)cc4)cc3)c[nH]2)C(C)(C)C)CCCCC1 [Compound W-252]	>100 fold
CC(C)(C)[C@H](NC(=O)C1CCCOC1)c1nc(-c2ccc(-c3ccc(-c4c[nH]c([C@@H](NC(=O)C5CCCOC5)C(C)(C)C)n4)cc3)cc2)c[nH]1 (stereo partly drawn) [Compound W-131]	>100 fold
COC(C)(C)C(=O)N[C@H](c1nc(-c2ccc(-c3ccc(-c4c[nH]c([C@@H](NC(=O)C(C)(C)OC)C(C)(C)C)n4)c(C)c3)cc2)c[nH]1)C(C)(C)C.O=C(O)C(F)(F)F [Compound N-85]	>100 fold
